Data reported in ChEMBL document CHEMBL1144970, “Protective effects of steroid saponins from Paris polyphylla var. yunnanensis on ethanol- or indomethacin-induced gastric mucosal lesions in rats: structural requirement for activity and mode of action” (Bioorg Med Chem Lett, 2003).

What was measured:
[1] = system: Rattus norvegicus; experiment: Percent inhibition of gastric lesions induced by endomethacin was measured, after administration of 10 mg/kg po in rats; type: functional; conditions: Stomach
[2] = system: Rattus norvegicus; experiment: Reduction in length (control value = 62.8+/-12.4) of gastric lesions induced by endomethacin was measured, after administration of 10 mg/kg po in rats; type: functional, Stomach
[3] = system: Rattus norvegicus; experiment: Percent inhibition of gastric lesions induced by ethanol was measured, after administration of 10 mg/kg po in rats; type: functional; conditions: Stomach
[4] = system: Rattus norvegicus; experiment: Reduction in length (control value = 138+/-12.1) of gastric lesions induced by ethanol was measured, after administration of 10 mg/kg po in rats; type: functional, Stomach

CC1CC[C@@]2(OC1)OC1CC3C4CC=C5C[C@@H](O)CC[C@]5(C)C4CC[C@]3(C)[C@@]1(O)[C@@H]2C (some centres undefined)
inhibition in vivo at 10 mg/kg [1]: 6.8% | Length [2]: 67.1 mm | inhibition in vivo at 10 mg/kg [3]: 2.5% | Length [4]: 134 mm
